Measured values reported in ChEMBL document CHEMBL2331553, “Discovery of N-[[1-[2-(tert-butylcarbamoylamino)ethyl]-4-(hydroxymethyl)-4-piperidyl]methyl]-3,5-dichloro-benzamide as a selective T-type calcium channel (Cav3.2) inhibitor” (Bioorg Med Chem Lett, 2013).
Values after ≈ are worked out from the molar mass of the structure shown.

Experiments:
[1] = target: T1, Voltage-dependent T-type calcium channel subunit alpha-1H (Homo sapiens, UniProt O95180); assay: Inhibition of human T-type calcium channel Cav3.2 expressed in T-Rex293 cells by whole cell patch clamp assay; type: cell-based, HEK293
T1 sequence (O95180 whole entry): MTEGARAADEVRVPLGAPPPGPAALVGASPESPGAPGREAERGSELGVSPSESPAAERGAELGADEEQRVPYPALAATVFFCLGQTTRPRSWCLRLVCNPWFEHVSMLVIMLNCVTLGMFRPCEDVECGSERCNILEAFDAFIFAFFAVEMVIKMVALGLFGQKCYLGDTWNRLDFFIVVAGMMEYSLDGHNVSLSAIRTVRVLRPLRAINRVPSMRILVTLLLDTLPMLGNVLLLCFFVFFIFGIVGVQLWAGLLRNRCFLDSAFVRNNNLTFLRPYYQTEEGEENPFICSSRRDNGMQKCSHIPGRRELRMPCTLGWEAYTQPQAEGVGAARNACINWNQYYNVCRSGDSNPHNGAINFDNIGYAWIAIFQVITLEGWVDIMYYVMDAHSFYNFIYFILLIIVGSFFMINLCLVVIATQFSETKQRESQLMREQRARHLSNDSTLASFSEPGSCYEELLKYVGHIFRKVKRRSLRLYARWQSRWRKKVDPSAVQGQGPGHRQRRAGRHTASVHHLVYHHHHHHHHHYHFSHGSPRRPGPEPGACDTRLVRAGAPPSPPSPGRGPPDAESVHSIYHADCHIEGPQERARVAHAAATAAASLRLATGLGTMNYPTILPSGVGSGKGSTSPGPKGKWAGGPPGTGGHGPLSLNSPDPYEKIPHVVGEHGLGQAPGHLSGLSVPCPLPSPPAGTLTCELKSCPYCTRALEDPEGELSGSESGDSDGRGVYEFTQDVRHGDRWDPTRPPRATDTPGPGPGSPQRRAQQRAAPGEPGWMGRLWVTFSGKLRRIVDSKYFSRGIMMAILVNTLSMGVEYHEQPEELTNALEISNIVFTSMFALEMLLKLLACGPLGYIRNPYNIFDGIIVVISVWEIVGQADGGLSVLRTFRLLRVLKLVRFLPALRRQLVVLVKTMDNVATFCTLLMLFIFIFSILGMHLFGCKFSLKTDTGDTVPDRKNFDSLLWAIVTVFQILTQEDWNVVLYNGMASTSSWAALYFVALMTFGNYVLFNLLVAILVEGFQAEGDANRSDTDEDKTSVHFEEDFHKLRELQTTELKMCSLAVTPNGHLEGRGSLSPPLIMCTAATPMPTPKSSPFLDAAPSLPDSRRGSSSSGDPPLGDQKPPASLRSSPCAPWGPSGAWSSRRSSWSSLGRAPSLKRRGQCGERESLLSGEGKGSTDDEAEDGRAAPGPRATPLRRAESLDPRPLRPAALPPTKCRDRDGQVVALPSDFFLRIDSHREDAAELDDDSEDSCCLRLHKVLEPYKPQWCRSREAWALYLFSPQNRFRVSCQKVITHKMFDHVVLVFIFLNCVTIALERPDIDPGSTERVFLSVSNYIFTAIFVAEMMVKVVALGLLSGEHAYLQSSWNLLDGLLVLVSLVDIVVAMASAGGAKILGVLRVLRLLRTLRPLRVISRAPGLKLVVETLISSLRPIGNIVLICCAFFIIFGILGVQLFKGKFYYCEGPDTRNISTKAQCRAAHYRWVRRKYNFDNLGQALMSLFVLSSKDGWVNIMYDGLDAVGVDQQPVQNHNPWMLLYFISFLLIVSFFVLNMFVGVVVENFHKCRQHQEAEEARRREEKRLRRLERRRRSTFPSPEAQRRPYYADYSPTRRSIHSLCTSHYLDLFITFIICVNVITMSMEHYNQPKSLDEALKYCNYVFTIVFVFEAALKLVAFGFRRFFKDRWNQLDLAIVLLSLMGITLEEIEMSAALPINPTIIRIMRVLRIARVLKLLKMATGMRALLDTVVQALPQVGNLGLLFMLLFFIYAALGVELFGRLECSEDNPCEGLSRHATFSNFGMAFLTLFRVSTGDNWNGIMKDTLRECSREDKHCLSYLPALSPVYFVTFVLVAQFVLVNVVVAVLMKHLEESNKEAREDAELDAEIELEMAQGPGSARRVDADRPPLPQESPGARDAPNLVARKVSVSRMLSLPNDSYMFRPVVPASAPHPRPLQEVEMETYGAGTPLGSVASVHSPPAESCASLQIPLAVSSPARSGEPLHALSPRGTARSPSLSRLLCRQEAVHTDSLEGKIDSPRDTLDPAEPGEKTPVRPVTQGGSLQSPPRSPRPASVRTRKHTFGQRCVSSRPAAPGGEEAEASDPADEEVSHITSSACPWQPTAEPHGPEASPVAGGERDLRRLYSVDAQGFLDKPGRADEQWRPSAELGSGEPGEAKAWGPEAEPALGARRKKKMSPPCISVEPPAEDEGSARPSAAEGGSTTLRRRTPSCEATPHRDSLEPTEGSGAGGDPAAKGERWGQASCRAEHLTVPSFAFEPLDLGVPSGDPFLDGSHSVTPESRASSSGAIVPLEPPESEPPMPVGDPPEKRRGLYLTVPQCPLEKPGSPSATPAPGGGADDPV

[2] = target: T1, Voltage-dependent T-type calcium channel subunit alpha-1H; assay: Inhibition of T-type calcium channel Cav3.2 (unknown origin) by IONWORKS assay
Cytochrome P450 2D6 = Cytochrome P450 2D6 (Homo sapiens, UniProt P10635); assay: Inhibition of human recombinant CYP2D6-mediated 7-methoxy-4(aminomethyl)-coumarine degradation; type: ADME
Chain of Cytochrome P450 2D6 (P10635 whole entry): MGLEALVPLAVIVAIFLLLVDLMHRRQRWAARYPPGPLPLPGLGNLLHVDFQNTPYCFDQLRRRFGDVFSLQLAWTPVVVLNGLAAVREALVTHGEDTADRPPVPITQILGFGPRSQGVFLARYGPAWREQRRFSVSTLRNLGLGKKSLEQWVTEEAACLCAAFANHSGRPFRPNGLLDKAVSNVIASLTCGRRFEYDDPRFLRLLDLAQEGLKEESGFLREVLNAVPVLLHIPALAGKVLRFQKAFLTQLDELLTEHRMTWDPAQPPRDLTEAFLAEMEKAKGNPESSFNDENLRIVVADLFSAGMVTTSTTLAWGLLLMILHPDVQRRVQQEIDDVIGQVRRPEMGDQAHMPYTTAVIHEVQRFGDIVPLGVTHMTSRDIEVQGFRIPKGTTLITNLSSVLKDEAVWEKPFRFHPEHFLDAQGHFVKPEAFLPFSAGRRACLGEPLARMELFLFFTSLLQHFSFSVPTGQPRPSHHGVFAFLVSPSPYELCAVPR

[3] = Oral bioavailability in beagle dog at 3 mg/kg; type: ADME, organism-based, Canis lupus familiaris; settings: in vivo
[4] = target: Voltage-dependent L-type calcium channel subunit alpha-1C (Homo sapiens, UniProt Q13936); assay: Inhibition of calcium channel Cav1.2 (unknown origin) expressed in CHO cells by IONWORKS patch clamp assay; type: cell-based
[5] = target: T2, A-type voltage-gated potassium channel KCND3 (Homo sapiens, UniProt Q9UK17); assay: Inhibition of human Kv4.3 channel expressed in CHO cells by IONWORKS patch clamp assay; type: cell-based
T2 sequence (Q9UK17 whole entry): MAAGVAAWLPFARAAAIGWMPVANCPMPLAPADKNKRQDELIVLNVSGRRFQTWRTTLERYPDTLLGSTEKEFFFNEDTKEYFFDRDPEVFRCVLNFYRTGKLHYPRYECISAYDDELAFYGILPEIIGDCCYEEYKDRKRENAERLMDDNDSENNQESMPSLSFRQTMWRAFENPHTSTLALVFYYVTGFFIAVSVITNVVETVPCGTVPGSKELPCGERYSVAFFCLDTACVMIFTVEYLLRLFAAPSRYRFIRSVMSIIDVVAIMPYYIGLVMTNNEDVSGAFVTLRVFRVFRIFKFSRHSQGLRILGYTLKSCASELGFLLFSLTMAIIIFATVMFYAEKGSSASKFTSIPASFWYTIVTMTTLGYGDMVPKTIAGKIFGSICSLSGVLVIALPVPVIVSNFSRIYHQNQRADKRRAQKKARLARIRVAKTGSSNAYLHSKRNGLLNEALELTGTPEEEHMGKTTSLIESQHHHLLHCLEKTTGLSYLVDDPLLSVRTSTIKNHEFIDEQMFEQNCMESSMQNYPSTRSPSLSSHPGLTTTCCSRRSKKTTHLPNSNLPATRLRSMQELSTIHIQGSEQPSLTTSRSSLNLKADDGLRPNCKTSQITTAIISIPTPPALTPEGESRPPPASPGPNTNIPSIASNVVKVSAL

Liver microsomes = assay: Drug metabolism in human liver microsomes assessed as glutathione-adduct reactive metabolite formation at 1 mg/ml after 30 mins; type: ADME, Microsome; settings: 0.5 h
[6] = target: Voltage-gated potassium channel, IKs; KCNQ1(Kv7.1)/KCNE1(MinK) (Homo sapiens, UniProt P15382+P51787); assay: Inhibition of human IKs channel expressed in CHO cells by IONWORKS patch clamp assay; type: cell-based
Chain of Voltage-gated potassium channel, IKs; KCNQ1(Kv7.1)/KCNE1(MinK) (P51787 whole entry): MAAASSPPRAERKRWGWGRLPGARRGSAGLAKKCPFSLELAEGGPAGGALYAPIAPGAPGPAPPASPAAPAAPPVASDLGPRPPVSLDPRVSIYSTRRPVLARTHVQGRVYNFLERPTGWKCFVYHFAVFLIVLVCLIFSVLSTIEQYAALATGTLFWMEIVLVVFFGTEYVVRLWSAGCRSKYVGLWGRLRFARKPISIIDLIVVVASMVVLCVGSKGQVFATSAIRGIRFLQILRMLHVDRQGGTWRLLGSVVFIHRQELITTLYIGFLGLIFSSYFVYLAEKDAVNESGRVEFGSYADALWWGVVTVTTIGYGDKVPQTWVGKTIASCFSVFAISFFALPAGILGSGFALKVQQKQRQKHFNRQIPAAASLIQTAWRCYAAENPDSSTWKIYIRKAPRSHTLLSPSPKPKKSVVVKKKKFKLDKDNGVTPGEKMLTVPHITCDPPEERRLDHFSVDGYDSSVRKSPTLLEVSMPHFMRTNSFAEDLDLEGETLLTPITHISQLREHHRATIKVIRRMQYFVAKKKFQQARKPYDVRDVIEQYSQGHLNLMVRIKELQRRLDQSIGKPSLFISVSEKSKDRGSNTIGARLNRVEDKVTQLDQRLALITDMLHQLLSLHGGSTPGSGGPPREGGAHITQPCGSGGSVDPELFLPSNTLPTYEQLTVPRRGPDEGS

[7] = target: Sodium channel protein type 5 subunit alpha (Homo sapiens, UniProt Q14524); assay: Inhibition of human Nav1.5 channel expressed in CHO cells by IONWORKS patch clamp assay; type: cell-based
[8] = Clearance in beagle dog at 1 mg/kg, iv; type: ADME, organism-based, Canis lupus familiaris; set-up: dose 1 mg/kg, route intravenous; settings: in vivo
[9] = target: T3, Potassium/sodium hyperpolarization-activated cyclic nucleotide-gated channel 4 (Homo sapiens, UniProt Q9Y3Q4); assay: Inhibition of human HCN4 channel expressed in CHO cells by IONWORKS patch clamp assay; type: cell-based
T3 sequence (Q9Y3Q4 whole entry): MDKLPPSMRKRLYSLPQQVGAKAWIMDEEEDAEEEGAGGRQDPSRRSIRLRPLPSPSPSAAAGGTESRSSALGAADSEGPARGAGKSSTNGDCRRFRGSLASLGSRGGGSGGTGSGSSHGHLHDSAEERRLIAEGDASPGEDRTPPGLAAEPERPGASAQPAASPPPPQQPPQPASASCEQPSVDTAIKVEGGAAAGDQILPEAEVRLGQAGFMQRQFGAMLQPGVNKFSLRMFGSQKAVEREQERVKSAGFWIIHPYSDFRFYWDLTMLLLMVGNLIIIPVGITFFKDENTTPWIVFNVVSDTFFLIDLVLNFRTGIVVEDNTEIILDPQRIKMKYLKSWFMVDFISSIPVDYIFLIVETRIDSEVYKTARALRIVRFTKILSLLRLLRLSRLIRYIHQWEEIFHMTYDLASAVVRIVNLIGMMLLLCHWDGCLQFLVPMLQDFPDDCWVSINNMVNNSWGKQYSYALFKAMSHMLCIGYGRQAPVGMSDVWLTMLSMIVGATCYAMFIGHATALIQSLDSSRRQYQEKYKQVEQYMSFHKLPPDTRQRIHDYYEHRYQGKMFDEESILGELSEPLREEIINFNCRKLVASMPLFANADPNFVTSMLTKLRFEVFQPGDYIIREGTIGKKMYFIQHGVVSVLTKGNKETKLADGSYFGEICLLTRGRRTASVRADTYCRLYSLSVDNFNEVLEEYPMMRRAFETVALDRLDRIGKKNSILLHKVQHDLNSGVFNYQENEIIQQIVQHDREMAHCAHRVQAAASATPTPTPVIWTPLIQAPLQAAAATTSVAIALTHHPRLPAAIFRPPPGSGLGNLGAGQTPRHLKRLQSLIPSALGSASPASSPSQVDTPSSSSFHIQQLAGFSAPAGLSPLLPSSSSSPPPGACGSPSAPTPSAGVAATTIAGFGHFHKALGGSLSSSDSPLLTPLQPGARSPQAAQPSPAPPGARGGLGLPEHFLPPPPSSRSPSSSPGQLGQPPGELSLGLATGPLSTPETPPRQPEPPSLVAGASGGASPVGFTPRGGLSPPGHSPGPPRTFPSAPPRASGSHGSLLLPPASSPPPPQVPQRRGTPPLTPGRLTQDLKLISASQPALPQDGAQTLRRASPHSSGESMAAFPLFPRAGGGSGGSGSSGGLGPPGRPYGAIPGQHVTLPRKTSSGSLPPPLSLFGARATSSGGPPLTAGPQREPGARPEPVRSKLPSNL

[10] = target: Voltage-gated inwardly rectifying potassium channel KCNH2 (Homo sapiens, UniProt Q12809); assay: Inhibition of human ERG expressed in CHO cells by IONWORKS assay; type: cell-based
Chain of Voltage-gated inwardly rectifying potassium channel KCNH2 (Q12809 whole entry): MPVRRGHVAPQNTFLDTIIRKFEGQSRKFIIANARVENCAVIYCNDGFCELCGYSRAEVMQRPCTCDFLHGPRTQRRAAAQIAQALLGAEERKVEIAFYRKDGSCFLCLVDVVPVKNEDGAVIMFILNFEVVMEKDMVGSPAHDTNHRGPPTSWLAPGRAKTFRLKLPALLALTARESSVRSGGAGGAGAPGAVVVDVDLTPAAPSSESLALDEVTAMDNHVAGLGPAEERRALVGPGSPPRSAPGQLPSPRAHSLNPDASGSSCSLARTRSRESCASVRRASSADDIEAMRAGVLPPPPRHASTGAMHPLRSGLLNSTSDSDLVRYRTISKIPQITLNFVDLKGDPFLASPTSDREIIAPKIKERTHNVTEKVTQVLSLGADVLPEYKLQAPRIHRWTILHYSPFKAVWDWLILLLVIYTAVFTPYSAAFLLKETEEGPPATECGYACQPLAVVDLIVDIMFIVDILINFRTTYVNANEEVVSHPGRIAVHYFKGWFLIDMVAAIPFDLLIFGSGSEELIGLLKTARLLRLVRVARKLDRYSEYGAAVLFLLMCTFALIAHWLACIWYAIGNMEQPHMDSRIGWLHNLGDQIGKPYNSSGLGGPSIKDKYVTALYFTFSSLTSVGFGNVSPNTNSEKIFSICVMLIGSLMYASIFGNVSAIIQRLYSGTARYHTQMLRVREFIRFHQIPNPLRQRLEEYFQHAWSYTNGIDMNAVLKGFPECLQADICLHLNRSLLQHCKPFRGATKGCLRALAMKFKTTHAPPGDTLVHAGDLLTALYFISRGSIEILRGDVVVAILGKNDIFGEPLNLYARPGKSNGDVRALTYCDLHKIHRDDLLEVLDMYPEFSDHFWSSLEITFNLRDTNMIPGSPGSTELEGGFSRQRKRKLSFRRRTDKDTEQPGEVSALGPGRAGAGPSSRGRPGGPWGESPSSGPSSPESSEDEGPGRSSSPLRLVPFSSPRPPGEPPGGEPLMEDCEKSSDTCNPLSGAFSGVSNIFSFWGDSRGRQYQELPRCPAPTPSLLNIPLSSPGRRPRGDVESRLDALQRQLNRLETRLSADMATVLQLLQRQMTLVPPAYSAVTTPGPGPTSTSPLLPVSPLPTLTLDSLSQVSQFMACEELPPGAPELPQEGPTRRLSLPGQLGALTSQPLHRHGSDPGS

[11] = Intrinsic clearance in human liver microsomes at 1 mg/ml after 45 mins; type: ADME, Microsome; settings: read-out: CLH
[12] = Solubility of the compound at pH 7.4; type: physicochemical; settings: buffer
Canis familiaris = assay: Cardioprotective activity in iv dosed beagle dog atrial fibrillation model assessed as reduction in heart rate administered as infusion for over 20 mins followed by 60-mins washout period by ECG analysis relative to control; type: functional, organism-based; settings: Canis lupus familiaris
[13] = Ratio of unbound concentration in brain to unbound concentration in plasma in Sprague-Dawley rat at 2 umol/kg/hr, iv administered as infusion measured after 4 hrs; type: ADME, organism-based; settings: brain and plasma (unbound concentrations), read-out: K(p,uu,brain)

Structure (SMILES)	IC50 [1] [µM]	IC50 (Cytochrome P450 2D6) [µM]	Drug metabolism (Liver microsomes)	IC50 [10] [µM]	microsomal CLint [11] [µL/min/mg]	also measured
CC(C)(C)NC(=O)NCCCN1CCN(CC(=O)NC23CC4CC(CC(C4)C2)C3)CC1	1.2	–	–	–	–	–
CC(C)(C)C(=O)NCCCN1CCN(CC(=O)NC23CC4CC(CC(C4)C2)C3)CC1	1.3	–	–	–	–	–
CC(C)(C)NC(=O)NCCN1CCC(CO)(CNC(=O)c2cc(Cl)cc(Cl)c2)CC1	0.6	13	Not Active	> 33	7	IC50 [2]: 1.2 µM; bioavailability [3]: 22%; IC50 [4]: > 31.6 µM; IC50 [5]: > 33 µM; IC50 [6]: > 33 µM; IC50 [7]: > 33 µM; clearance [8]: 17 mL/min/kg; IC50 [9]: > 33 µM; solubility [12]: 460 µM (≈ 211 µg/mL); Activity (Canis familiaris): Dose-dependent effect
CC(C)(C)NC(=O)NCCN1CCC(CNC(=O)c2cc(Cl)cc(Cl)c2)C1 (configuration not stated)	0.4	1	Active	5.8	< 5	–
CC(C)(C)NC(=O)NCCN1CCC(CNC(=O)c2cc(Cl)cc(Cl)c2)CC1	0.5	3.4	Not Active	13	< 5	–
CC(C)(C)NC(=O)NCCN1CCCC(CNC(=O)c2cc(Cl)cc(Cl)c2)C1 (configuration not stated)	0.5	1.6	Not Active	–	16	–
CC(C)(C)CS(=O)(=O)NCCN1CCN(CC(=O)NC23CC4CC(CC(C4)C2)C3)CC1	0.9	–	–	–	–	Kp uu at 4 h [13]: 0.3
CC(C)(C)C(=O)NCCN1CCN(CC(=O)NC23CC4CC(CC(C4)C2)C3)CC1	3	–	–	–	–	–
CC(C)(C)NC(=O)CN1CCN(CC(=O)NC23CC4CC(CC(C4)C2)C3)CC1	1	–	–	–	–	Kp uu at 4 h [13]: 0.4
CC(C)(C)NC(=O)NCCN1CCC(O)(CNC(=O)c2cc(Cl)cc(Cl)c2)CC1	0.6	14	Active	> 33	6	–
CC(C)(C)NC(=O)NCCN1CCOC(CNC(=O)c2cc(Cl)cc(Cl)c2)C1 (configuration not stated)	3.3	> 20	Active	> 33	47	–
CC(C)(C)NC(=O)NCCN1CCCC(NC(=O)c2cc(Cl)cc(Cl)c2)C1 (configuration not stated)	0.5	8.3	Active	4.1	48	–
CC(C)(C)NC(=O)NCCN1CCN(CC(=O)NC23CC4CC(CC(C4)C2)C3)CC1	0.5	> 20	–	> 33	100	Kp uu at 4 h [13]: 0.02
CC(C)(C)NC(=O)NCCN1CCN(CC(=O)Nc2cc(Cl)cc(Cl)c2)CC1	0.3	8	–	1.6	29	–
CC(C)(C)S(=O)(=O)CCCN1CCN(CC(=O)NC23CC4CC(CC(C4)C2)C3)CC1	2.4	–	–	–	–	Kp uu at 4 h [13]: 0.3
COCC(=O)O[C@]1(CCN(C)CCCc2nc3ccccc3[nH]2)CCc2cc(F)ccc2[C@@H]1C(C)C [MIBEFRADIL]	–	0.063	Active	–	56.5	–
CC(C)(C)NC(=O)NCCN1CCC(NC(=O)c2cc(Cl)cc(Cl)c2)C1 (configuration not stated)	0.8	2.6	Active	6.6	15	–
O=C(CN1CCN(CCC2CCOCC2)CC1)NC12CC3CC(CC(C3)C1)C2	–	–	–	–	–	Kp uu at 4 h [13]: 1.2
CC(C)(C)NCCN1CCN(CC(=O)NC23CC4CC(CC(C4)C2)C3)CC1	4.9	–	–	–	–	–
CC(C)(C)OC(=O)NCCN1CCN(CC(=O)NC23CC4CC(CC(C4)C2)C3)CC1	1.2	–	–	–	–	–
CC(C)(C)NC(=O)NCCN1CC(NC(=O)c2cc(Cl)cc(Cl)c2)C1	0.8	4.5	Active	–	4	–
